From publication PMC11276905 (International Journal of Molecular Sciences, 2024)
“Also recorded” adds a separate entry of the source. Like-named read-outs stand apart in the source and are kept apart here. Where a SMILES comes first, the peptide text is derived from it. The star is where a group is joined. MeOSuc = COC(=O)CCC(=O)*; CH2Cl = ClC*

Columns and labels:
HNE in U937 cells = target: T1, HNE in U937 cells (Homo sapiens, UniProt P08246); assay: Intracellular HNE inhibition in cultured U937 cells (residual activity in lysates); format: cell-based; conditions: for time course of HNE inhibition in U937 cells (in words): 0-26 h culture
T1 construct: the myeloid cell line U937, which can differentiate into neutrophils [25] and expresses HNE; host or cells: U937 (histiocytic lymphoma), undifferentiated
T1 sequence (P08246 30-247 limits assumed): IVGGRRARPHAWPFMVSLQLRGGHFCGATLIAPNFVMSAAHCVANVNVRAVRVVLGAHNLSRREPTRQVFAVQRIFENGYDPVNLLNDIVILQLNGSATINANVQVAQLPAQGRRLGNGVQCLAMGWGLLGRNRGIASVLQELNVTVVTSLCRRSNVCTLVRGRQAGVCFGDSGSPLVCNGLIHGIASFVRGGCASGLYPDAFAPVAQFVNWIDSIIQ
Procedure: (§3) The enzymatic activity of HNE was measured using a fluorescence-based assay in 96-well black bottom plates (Corning®, 003916, New York, NY, USA). HNE (0.5 nM) or cell lysates (20 µL, ~100 PMN/µL, ~1000 U937/µL, ~5000 HL-60/µL or ~1000 HMC-1/µL) were diluted in assay buffer (200 mM TRIS HCl, 500 mM NaCl, 0.05% Tween-20, pH 8.0). […] AMC (7-Amino-4-methylcoumarin) standard curves were generated by measuring serial dilutions of the fluorophore AMC (1 µM–0 µM) in assay buffer on the same plate and used to calculate nM AMC generation from fluorescence measurements.
(§4) U937 cells were plated in sterile 96-U-well plates (92697, TPP, Trasadingen, Switzerland) at a density of 100 cells/µL in a cell culture medium (180 µL per well). Increasing concentrations of inhibitors and solvent controls were diluted in a culture medium and added (20 µL/well) to the 96-well plate 26 h, 6 h, 3 h, and 0 h before harvesting and lysing the cells (see below). Plates were kept at 37 °C, 5% CO2, and 95% humidity throughout the incubation period. […] Similarly, freshly isolated PMN were plated at 50–100 cells/µL in PBS (1 g/L glucose) and incubated for 1 h with inhibitors or controls.
(§5) For cell lysis, cells were pelleted in the microtiter plates by centrifugation (400× g, 10 min, 4 °C) and washed three times in PBS (4 °C). Washed cells were then lysed by adding lysis buffer (PBS, 1 M NaCl, 0.1% Tween-20, pH 7.4) and freeze–thawing on dry ice. Finally, lysates were centrifuged (2100× g) to remove cell debris. Enzymatic activity of HNE was determined as described above, and residual activity present after incubation with inhibitors expressed as % of matched solvent controls.

[1] = system: elastase-like activity in HL-60 lysates; assay: Inhibition of elastase-like activity in HL-60 lysates; format: biochemical, human; conditions: 1 mM, 1 h, 37 °C
Text: (§1) For the quantification and characterization of HNE-like activity in cell lysates, the density of the sample cell suspension was first quantified using a CASY-1 cell counter.

U937 cells [2] = assay: LDH release from U937 cells; format: cell-based, human; conditions: after 26 h
Procedure: Cytotoxicity of the inhibitors was determined by analyzing the release of lactate dehydrogenase (LDH) into the cell culture medium using the LDH cytotoxicity kit II (PromoKine, Heidelberg, Germany) or the more sensitive Pierce LDH cytotoxicity assay kit (Thermo Scientific, Darmstadt, Germany) following the manufacturer’s instructions.

[3] = Inhibitor stability in serum-free cell culture medium; format: physicochemical; conditions: 26 h, 37 °C
Procedure: Inhibitors were prepared as above and incubated for 26 h in RPMI at 37 °C. Residual inhibitor activity was compared to the activity of freshly prepared compounds by measuring the inhibition of HNE.

[4] = target: T2, isolated HNE (human neutrophil elastase) (Homo sapiens, UniProt P08246); assay: Inhibition of isolated HNE, steady-state kinetics (MeOSuc-AAPV-AMC); format: biochemical
T2 construct: immediately processed to its active form in the trans-Golgi before being targeted to azurophil granules; purchased Merck (Darmstadt, Germany) 324681
T2 sequence (P08246 30-267): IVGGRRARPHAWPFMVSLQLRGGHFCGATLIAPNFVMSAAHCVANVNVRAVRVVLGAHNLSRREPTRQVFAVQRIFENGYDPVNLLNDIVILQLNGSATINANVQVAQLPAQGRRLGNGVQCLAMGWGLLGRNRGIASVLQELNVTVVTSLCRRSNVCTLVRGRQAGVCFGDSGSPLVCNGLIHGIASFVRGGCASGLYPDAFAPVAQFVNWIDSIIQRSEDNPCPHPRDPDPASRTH
Procedure: (§2) To determine the inhibition constants of reversible inhibitors with isolated HNE and HNE in cell lysates, HNE (0.5 nM) and U937 lysates (1000 cells/µL) were incubated with serial dilutions of the compounds in assay buffer at 37 °C for ≥ 1 h. Subsequently, residual HNE activity was measured as described above and compared to the activity of uninhibited HNE. […] The inhibition curves generated were fitted to Morrisons’s equation to obtain the dissociation equilibrium constant Ki with pro-Fit (Quantum Soft, Uetikon am See, Switzerland) using a Levenberg–Marquardt algorithm.

HNE in U937 lysates = target: T3, HNE in U937 lysates (Homo sapiens, UniProt P08246); assay: Inhibition of HNE activity in U937 lysates; format: biochemical
T3 construct: the myeloid cell line U937, which can differentiate into neutrophils [25] and expresses HNE; host or cells: U937 (histiocytic lymphoma), undifferentiated
T3 sequence (P08246 30-247 limits assumed): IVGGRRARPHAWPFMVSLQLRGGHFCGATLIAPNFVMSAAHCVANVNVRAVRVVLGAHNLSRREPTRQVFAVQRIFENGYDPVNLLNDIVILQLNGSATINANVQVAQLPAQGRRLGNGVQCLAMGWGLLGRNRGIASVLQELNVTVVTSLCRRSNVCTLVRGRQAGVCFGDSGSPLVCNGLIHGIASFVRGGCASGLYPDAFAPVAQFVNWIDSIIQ
Procedure: as §1, §2

U937 cells [5] = assay: Proliferation of U937 cells; format: cell-based, human; conditions: concentrations ≥300 µM
Procedure: U937 cells were plated in sterile 96-U-well plates (92697, TPP, Trasadingen, Switzerland) at a density of 100 cells/µL in a cell culture medium (180 µL per well). Increasing concentrations of inhibitors and solvent controls were diluted in a culture medium and added (20 µL/well) to the 96-well plate 26 h, 6 h, 3 h, and 0 h before harvesting and lysing the cells (see below). Plates were kept at 37 °C, 5% CO2, and 95% humidity throughout the incubation period.

isolated HNE = target: T4, isolated HNE (Homo sapiens, UniProt P08246); assay: Formation and dissociation of the HNE/inhibitor complex (pre-steady-state kinetics); format: biochemical; conditions: for kon: pre-steady-state kinetics, HNE 0.6 nM, 37 °C, mean ± SD
T4 construct: immediately processed to its active form in the trans-Golgi before being targeted to azurophil granules; purchased Merck (Darmstadt, Germany) 324681
T4 sequence (P08246 30-267): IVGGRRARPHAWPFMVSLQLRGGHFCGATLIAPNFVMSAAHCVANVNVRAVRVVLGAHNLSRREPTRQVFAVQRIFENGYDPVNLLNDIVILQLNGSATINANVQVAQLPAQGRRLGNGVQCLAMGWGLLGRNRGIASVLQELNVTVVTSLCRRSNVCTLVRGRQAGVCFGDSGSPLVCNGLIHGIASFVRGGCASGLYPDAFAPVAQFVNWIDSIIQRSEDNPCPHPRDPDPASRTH
Procedure: To determine the association rates (kon) of the inhibitors, the enzymatic activity of HNE (0.6 nM) was recorded continuously in an SFM25 fluorometer (Biotek Kontron, Neufahrn, Germany) by following the cleavage of MeOSuc-AAPV-AMC (10 µM) at 37 °C. When a constant rate was established (i.e., after 1–5 min), an inhibitor was added, and the reaction followed for up to 60 min. The pseudo-first-order rate constant kobs was obtained by fitting the observed presteady-state progress curve to the integrated equation of Morrison with pro-Fit. Apparent second-order rate constants were subsequently calculated as k2/Ki = kobs/It by linear regression from several independent experiments using a range of concentrations. For reversible inhibitors, the dissociation rate koff was subsequentially calculated as koff = Ki × kon; for irreversible inhibitors, koff is ≈ zero. Finally, the halftime of the HNE/inhibitor complex formation and dissociation were calculated as t1/2,on = 0.693/(kass × It + koff) and t1/2,off = 0.693/koff, respectively.

[6] = target: T2, isolated HNE (human neutrophil elastase); assay: Inhibition of isolated HNE, steady-state kinetics (MeOSuc-AAPV-AMC); format: biochemical; conditions: read-out: IC50(60min), isolated HNE; irreversible inhibitors, incubated 1 h, logistic fit, mean ± SD
HNE in mature PMN = target: T5, HNE in mature PMN (Homo sapiens, UniProt P08246); assay: Intracellular HNE inhibition in freshly isolated mature PMN; conditions: read-out: IC50, HNE in PMN; 1 h incubation
T5 sequence (P08246 30-247 limits assumed): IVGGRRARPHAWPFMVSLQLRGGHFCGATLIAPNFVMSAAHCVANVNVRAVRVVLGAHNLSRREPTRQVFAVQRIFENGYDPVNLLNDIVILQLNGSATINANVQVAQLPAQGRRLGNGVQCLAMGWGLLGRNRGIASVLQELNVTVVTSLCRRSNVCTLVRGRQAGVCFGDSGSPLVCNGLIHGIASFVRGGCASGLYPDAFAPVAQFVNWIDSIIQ
Procedure: Peripheral venous blood was collected from six healthy donors after informed consent (votum 018-09 of the local ethics committee), and differential blood counts were performed. Neutrophil granulocytes were isolated using the MACSxpress neutrophil isolation kit (Miltenyi Biotec, Bergisch Gladbach, Germany) following the manufacturer’s instructions. Residual erythrocytes were eliminated by hypotonic lysis. Neutrophils were resuspended in PBS with glucose (1 g/L) at a density of 50–100 cells/µL. The purity of the final cell population was analyzed by staining a smear using Pappenheim’s method and counting ≥200 cells using a light microscope.
as §3, §4, §5

[7] = target: T6, elastase-like activity (HNE) in PMN lysates (Homo sapiens, UniProt P08246); assay: Inhibition of elastase-like activity in PMN lysates; format: biochemical; conditions: 1 mM, 1 h, 37 °C
T6 construct: from tissue; host or cells: neutrophil granulocytes from peripheral venous blood of healthy human donors
T6 sequence (P08246 30-247 limits assumed): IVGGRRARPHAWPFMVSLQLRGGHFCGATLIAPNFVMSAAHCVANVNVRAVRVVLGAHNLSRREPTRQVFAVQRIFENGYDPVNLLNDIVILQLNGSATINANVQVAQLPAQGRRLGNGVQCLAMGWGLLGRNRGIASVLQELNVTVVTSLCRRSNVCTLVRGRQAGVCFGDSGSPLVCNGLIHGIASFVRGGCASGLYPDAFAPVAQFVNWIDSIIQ
Text: Residual erythrocytes were eliminated by hypotonic lysis.
as §1

For COC(=O)CCC(=O)N[C@@H](C)C(=O)N[C@@H](C)C(=O)N1CCC[C@H]1C(=O)N[C@H](C(=O)CCl)C(C)C [MeOSuc-AAPV-CMK] (MeOSuc-AAPV-CH2Cl), which “time course of HNE inhibition in U937 cells (in words)” value (HNE in U937 cells) is on record?
The value was “inhibit HNE in U937 cells increasingly over the 26 h observation period”.

Which results are given for Cl.NCCc1ccc(S(=O)(=O)F)cc1 [Pefabloc SC]?
inhibition of elastase-like activity in HL-60 lysate [1]: 95 ± 1%; LDH release from U937 cells (U937 cells [2]; 1000 and 300 µM): 12 ± 2%; decrease of inhibitory activity after incubation in medium ([3]; serum-free medium (RPMI)): approximately 50%; inhibition of activity of isolated HNE ([4]; 1 mM, 1 h, 37 °C, HNE 0.5 nM): 98 ± 0.6%; inhibition of isolated HNE ([4]; at ~10^−3 M): nearly complete inhibition; time course of HNE inhibition in U937 cells (in words) (HNE in U937 cells): increases during the first 6 h; also recorded: lose effectiveness over time; IC50 (HNE in U937 cells; 0 h incubation, read-out: IC50, HNE in U937 cells at 0 h): ~100 µM; inhibition of HNE in intact U937 cells (HNE in U937 cells; at ~10^−3 M): nearly complete inhibition; IC50 (HNE in U937 cells; intact U937 cells, time not specified, read-out: IC50, HNE in intact U937 cells): ~100 µM; IC50 (HNE in U937 cells; read-out: IC50, HNE in U937 cells at 6 h, 6 h incubation): ~10 µM; inhibition of elastase-like activity in U937 lysate (HNE in U937 lysates; 1 mM, 1 h, 37 °C): 91 ± 0.6%; IC50 (HNE in U937 lysates; read-out: IC50(60min), U937 lysate, irreversible inhibitors, incubated 1 h, logistic fit, mean ± SD): 130 µM; reduction of U937 cell proliferation (U937 cells [5]): 50 ± 3%; kon (isolated HNE): 1.0 ± 0.1 M⁻¹ s⁻¹; IC50 [6]: 130 µM; IC50 (HNE in mature PMN): ~100 µM; inhibition of elastase-like activity in PMN lysate [7]: 97 ± 0.6%

For COc1cc(C(C)C)c2c(c1)S(=O)(=O)N(COc1cc(=O)n3cccc(OCCN4CCCCC4)c3n1)C2=O [SSR 69071], which “LDH release from U937 cells” value (U937 cells [2]; 12.5 µM) is on record?
The value was 12 ± 2%.

And the “stability in cell culture medium (in words)” value ([3]; serum-free medium)?
The value was “appeared stable”.

And the “time course of HNE inhibition in U937 cells (in words)” value (HNE in U937 cells)?
The value was “most effective immediately after addition and then lose effect over time; also recorded: lose effectiveness over time”.

What about the Ki (HNE in U937 lysates; U937 lysate 1000 cells/µL, incubated 1 h 37 °C, Morrison fit, mean ± SD) of the same compound?
The Ki was 0.00033 µM.

What about the koff (isolated HNE; koff = Ki × kon, irreversible inhibitors ≈ zero) of the same compound?
The koff was 9.2e-05 s⁻¹.

What about the kon (isolated HNE) of the same compound?
Its kon is 2.8 ± 0.06 × 10^5 M^−1 s^−1.
